The experiment has as its system BCR-ABL1 driven leukemia. The conditions noted are these: leukemias of mice treated with 25 mg/kg cyclopamine vs vehicle; flow cytometry lin-GFP+ c-Kit+Sca-1+. On the technique in general: Flow cytometry measures light scatter and fluorescence of single cells or particles in a stream.

`CC1=C2C[C@H]3[C@@H](CC=C4C[C@@H](O)CC[C@@]43C)[C@@H]2CC[C@]12O[C@@H]1C[C@H](C)CN[C@H]1[C@H]2C` [cyclopamine]: the “reduction in the CML stem cell population” value is listed as “up to a fourteen-fold reduction”.

Source of the values: patent US20100080855A1, “HEDGEHOG SIGNALING AND CANCER STEM CELLS IN HEMATOPOIETIC CELL MALIGNANCIES” (THE BOARD OF TRUSTEES OF THE LELAND STANFORD JUNIOR …, priority 2008, published 2010).
